# Experimental data taken from patent publication US20260102420A1, “CANCER IMMUNOTHERAPY” (Hoffmann-La Roche Inc., priority 2022, published 2026).
# Assays:
# UAP1 = biological target: T1, UAP1 (Homo sapiens, UniProt Q16222); test: Detection of UDP-HexNAc by LC-MS in MKN45 cell lysates after 2h treatment; format: cell-based; details: MKN45 pre-treated for 2h, FIG. 9A
# T1 construct: endogenous in cells; host or cells: MKN45 (human gastric adenocarcinoma cell line), wild type
# Procedure: (§1) FIGS. 9A, 9B, 9C, 9D, and 9E. UAP1 inhibition with Ac4Glc2Bz in tumor cells improves T cell-mediated killing and T cell activation. FIG. 9A: Detection of UDP-HexNAc in MKN45 cell lysates after 2h treatment with Ac4Glc2Bz. FIGS. 9B and 9C: MKN45 were pre-treated with the indicated concentrations of Ac4Glc2Bz for 2 h. Afterwards, the compound was removed from the culture and T cells were added alongside TCBs at the indicated concentrations. Graphs show the % of remaining tumor cells after 105h from co-culture. DP47 TCB was used as negative control. FIGS. 9D and 9E: Flow cytometry of CD3+ T cells from the experiments in FIGS. 9B and 9C. T cell activation was assessed as previously described.
# For the preparation of calibration samples Uridine-5′-diphospho-N-acetylglucosamine sodium salt was dissolved in an 80/20 mixture of water/methanol (v/v) to a concentration of 1.00 mg/ml. A stock solution for the preparation of QC samples was prepared separately using the same procedure with separate weighing of the reference substance. Further dilutions were done in water. For calibration and quality control samples, eight and three different concentrations of Uridine-5′-diphospho-N-acetylglucosamine (UDP HExNAc) spiked into phosphate-buffered saline (PBS) were used, respectively. Two different calibration ranges were applied. […]
# MKN45 = test: T cell-mediated killing assay, MKN45 pre-treated with compound, co-culture with T cells and TCBs; format: cell-based, human; details: MKN45 pre-treated 2 h, compound removed, T cells and TCBs added; FIGS. 9B and 9C
# Procedure: as §1
# 25000 MKN45-nuclight red (NLR), 20000 A549-hCEA and 10000 B16F10-NLR tumor cells (wt or UAP1 ko) were seeded in one well of a 96 well-plate. Afterwards TCBs or siinfekl were given at the indicated concentrations. Pan T cells or PBMCs, mouse splenocytes (from C57/BL6 or OT-I mice) were immediately added at the indicated E:T ratios. Co-cultures were incubated at 37° C. and 5% C02 in the Incucye S3 instrument (Sartorius) for the indicated time. […] For MKN45-NLR and B16F10-NLR, T cell-mediated killing was calculated based on the red fluorescent signal coming from the tumor cells. All values were first transformed to fold-change to time 0, and % specific lysis was calculated as follows: […]
# CD3+ T cells = test: T cell activation (CD25/CD69) by flow cytometry after co-culture with pre-treated MKN45; format: cell-based, human; details: CD3+ T cells from the same co-cultures; FIGS. 9D and 9E
# Procedure: as §1
# T cell-mediated killing assay was performed as described above. At the end of the experiment, T cells were collected from the co-culture plates and subjected to immunofluorescence for the following markers: CD3, CD8, CD25, CD69 and Near-IR live/dead staining (Thermo Scientific). Cells were gated on live CD3^+ cells and % Activated cells was calculated as such: […]. For the proliferation assay, T cells were pre-stained with CFSE (Biolegend) according to manufacturer's instructions, and then used in a T cell-mediated killing assay with either MKN45-NLR wt or MKN45-NLR KO cells for 4 days. Afterwards, cells were harvested and CFSE was assessed by FACS. […]
# T1 sequence (Q16222 whole entry): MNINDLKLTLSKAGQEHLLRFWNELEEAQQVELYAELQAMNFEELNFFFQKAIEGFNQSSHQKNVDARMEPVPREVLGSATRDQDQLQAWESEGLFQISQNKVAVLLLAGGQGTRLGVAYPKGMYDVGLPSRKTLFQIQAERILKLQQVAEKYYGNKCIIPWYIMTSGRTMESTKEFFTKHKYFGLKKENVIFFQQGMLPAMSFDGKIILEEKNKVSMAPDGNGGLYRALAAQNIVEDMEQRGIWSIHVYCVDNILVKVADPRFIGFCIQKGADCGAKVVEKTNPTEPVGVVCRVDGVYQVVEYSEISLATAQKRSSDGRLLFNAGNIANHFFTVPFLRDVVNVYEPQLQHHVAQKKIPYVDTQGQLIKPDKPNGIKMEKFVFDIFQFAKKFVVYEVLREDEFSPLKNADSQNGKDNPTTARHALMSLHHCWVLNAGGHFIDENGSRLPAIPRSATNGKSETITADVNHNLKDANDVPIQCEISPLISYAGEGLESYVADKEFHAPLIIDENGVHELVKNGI
smiles,measurement,setting,value
CC(=O)OCC1OC(OC(C)=O)C(NC(=O)c2ccccc2)C(OC(C)=O)[C@@H]1OC(C)=O (stereo partly drawn) [Ac4Glc2Bz],inhibition of UAP1 (UDP-HexNAc detection),UAP1,dose-dependent inhibition of UAP1
same,T cell mediated killing,MKN45,increased T cell mediated killing
same,T cell activation,CD3+ T cells,increased
